In US20240246954A1, “COMPOSITIONS AND METHODS FOR INHIBITING KRAS” (TheRas, Inc., priority 2021, published 2024):
Read-outs that look alike come from different tables or passages of the source.

How the values were obtained:
[1] = tested on: pERK in GP2d cells (KRAS G12D); test: Cell-based pERK HTRF assay; settings: 60 min incubation
Method: Biological Example 3. Cell-Based pERK HTRF Assay
pERK assay (Perkin Elmer) was used to determine the effectiveness of compounds in disrupting KRAS G12D protein/effector signaling in cells.
On Day 1, cells (GP2d) were seeded into 96-well plates at 3×10^4 cells/well in 80 μl complete growth media (DMEM, 10% FBS).
On Day 2, cells were treated with compounds at 0.25% DMSO. The source plate was created with compounds diluted in media at 5-fold the final assay concentration. The compounds were run in a 9-point concentration curve starting at 1 μM, with a half-log dilution between concentrations. 20 μL was transferred onto the cell plates (final volume in wells was 100 μL). Plates were harvested after 60 min incubation by aspirating media and adding kit-supplied 1× supplemented lysis buffer to all wells (50 μl per well). Plates were then placed on a plate shaker and incubated at 850 rpm for an additional 30 min.
Antibody mixture solution is prepared by diluting aliquoted d2 and Eu Cryptate antibodies 1:20 in kit supplied detection buffer, mix the diluted antibodies solutions (1:1 v:v). Four μL of this solution is then added to a 384-well detection plate (Perkin Elmer; 6008230).
Samples were homogenized by pipetting up and down and then transferred (16 μL of cell lysates) from the 96-well cell culture plate to two wells of the HTRF 384-well detection plate containing the antibody solution. Plates were centrifuged (524 g for 1 min) and allowed to incubate between 4 and 24 h at room temperature. Maximum signal is reached after 4 h incubation time and remains stable over a period of 24 hours. Therefore, readings can be made between 4 and 24 h of incubation. Plates were centrifuged again (524 g for 1 min), then analyzed on the EnVision plate reader using the following settings: Excitation 320 nm, Bandwidth 75 nm; Emission 615 nm, Bandwidth 85 nm; Gain 100%; Flashes 100; Lag 60 μs.

[2] = target: T1, Avi-KRAS G12D/Q25A (1-169) GppNHp/3×FLAG-PI3KCA (157-299) (Homo sapiens, UniProt P01116, G12D/Q25A); test: HTRF PI3KCA-KRAS G12D/Q25A-GppNHp disruption assay; assay type: biochemical; settings: 1 h incubation
T1 construct: Avi-KRAS G12D/Q25A (1-169) GppNHp
T1 sequence (P01116 1-169 isoform P01116-2 G12D/Q25A limits assumed): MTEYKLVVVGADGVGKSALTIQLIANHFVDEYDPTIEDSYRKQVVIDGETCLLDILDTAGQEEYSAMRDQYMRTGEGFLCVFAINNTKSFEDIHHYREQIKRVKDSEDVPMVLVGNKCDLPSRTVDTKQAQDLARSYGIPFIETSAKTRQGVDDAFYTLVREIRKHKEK
Outline: (§1)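 HTRF read-out (320 nm excitation, 615 nm emission) after two 1 h room-temperature incubations, first with protein mix, then detection reagents. Ten-point dilution series starting at 100 μM; results given as % activity relative to DMSO at 100%.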

[3] = target: T2, Avi-KRAS G12D (1-169) GppNHp/RAF1 RBD-3×FLAG (52-151) (Homo sapiens, UniProt P01116, G12D); test: HTRF Raf1-KRAS G12D-GppNHp disruption assay; assay type: biochemical; settings: 1 h incubation
T2 construct: Avi-KRAS G12D (1-169) GppNHp
T2 sequence (P01116 1-169 isoform P01116-2 G12D limits assumed): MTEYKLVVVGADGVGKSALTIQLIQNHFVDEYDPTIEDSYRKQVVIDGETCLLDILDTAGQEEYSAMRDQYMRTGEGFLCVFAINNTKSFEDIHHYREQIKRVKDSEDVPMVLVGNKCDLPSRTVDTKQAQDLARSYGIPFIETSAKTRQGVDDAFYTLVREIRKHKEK
Outline: as §1

| SMILES | IC50 ([1]; GP2d, 1 h) | IC50 [2] | IC50 [3] | IC50 ([1]; read-out: pERK-Gp2D-1hr) |
| --- | --- | --- | --- | --- |
| Nc1nc2c(-c3c(C(F)(F)F)cc4c(N5CC6CCC(C5)N6CC5CC5)nc(OC[C@@]56CCCN5C[C@H](F)C6)nc4c3F)ccc(F)c2s1 [Compound 324] | 100 to 1000 nM | 1000 to 10000 nM | 1000 to 10000 nM |  |
| Nc1nc2c(-c3c(C(F)(F)F)cc4c(N5CC6CCCC(C5)N6)nc(OC[C@@]56CCCN5C[C@H](F)C6)nc4c3F)ccc(F)c2s1 [Compound 299] | ≤ 100 nM | 100 to 1000 nM | 100 to 1000 nM |  |
| CN(c1nc(OC[C@@]23CCCN2C[C@H](F)C3)nc2c(F)c(-c3ccc(F)c4sc(N)nc34)c(C(F)(F)F)cc12)[C@H]1CNCC1(C)C [Compound 325] | > 1000 nM | 1000 to 10000 nM | 1000 to 10000 nM |  |
| Nc1nc2c(-c3c(C(F)(F)F)cc4c(N[C@H]5CCC[C@@H](N)C5)nc(OCC56CCCN5CCC6)nc4c3F)ccc(F)c2s1 [Compound 329] | > 1000 nM | 10000 to 30000 nM | 10000 to 30000 nM |  |
| CO[C@H]1CN2CCC[C@]2(COc2nc(N3CC4CCC(C3)N4)c3cc(C(F)(F)F)c(-c4ccc(F)c5sc(N)nc45)c(F)c3n2)C1 [Compound 285] | ≤ 100 nM | 100 to 1000 nM | 100 to 1000 nM |  |
| CN1CCC[C@H]1COc1nc(NC2CNC2)c2cc(C(F)(F)F)c(-c3ccc(F)c4sc(N)nc34)c(F)c2n1 [Compound 129] | > 1000 nM | 1000 to 10000 nM | 100 to 1000 nM |  |
| Nc1nc2c(-c3c(C(F)(F)F)cc4c(N[C@@H]5CCC6(CNC6)C5)nc(OCC56CCCN5CCC6)nc4c3F)ccc(F)c2s1 [Compound 334] | > 1000 nM | 1000 to 10000 nM | 1000 to 10000 nM |  |
| Nc1nc2c(-c3c(C(F)(F)F)cc4c(N5CC[C@H]6CCNC[C@H]65)nc(OCC56CCCN5CCC6)nc4c3F)ccc(F)c2s1 [Compound 348] | > 1000 nM | 1000 to 10000 nM | 1000 to 10000 nM |  |
| CN1CCC(Oc2nc(N3CC4CCC(C3)N4)c3cc(C(F)(F)F)c(-c4ccc(F)c5sc(N)nc45)c(F)c3n2)CC1 [Compound 340] | 100 to 1000 nM | 1000 to 10000 nM | 1000 to 10000 nM |  |
| CN(c1nc(OC[C@@]23CCCN2C[C@H](F)C3)nc2c(F)c(-c3ccc(F)c4sc(N)c(C#N)c34)ccc12)[C@@H]1CCNC1 [Compound 344] | 100 to 1000 nM | 100 to 1000 nM | 100 to 1000 nM |  |
| Nc1nc2c(-c3cc4nc(OC[C@@]56CCCN5C[C@H](F)C6)nc(N5CC6CCC(C5)N6)c4cc3C(F)(F)F)ccc(F)c2s1 [Compound 313] | ≤ 100 nM | 1000 to 10000 nM | 100 to 1000 nM |  |
| N#Cc1c(N)sc2c(F)ccc(-c3c(C(F)(F)F)cc4c(N5CC6CCC(C5)N6)nc(OC[C@@]56CCCN5C[C@H](F)C6)nc4c3F)c12 (single isomer, unassigned) [Compound 367] |  | 1000 to 10000 nM | 1000 to 10000 nM | 100 to 1000 nM |
| Nc1nc2c(-c3c(C(F)(F)F)cc4c(N5CCC6(CCNC6)C5)nc(OCC56CCCN5CCC6)nc4c3F)ccc(F)c2s1 (stereo not drawn) [Compound 327] | > 1000 nM | 1000 to 10000 nM | 100 to 1000 nM |  |
| Nc1nc2c(-c3c(C(F)(F)F)cc4c(N5CC[C@@H]6CCNC[C@@H]65)nc(OCC56CCCN5CCC6)nc4c3F)ccc(F)c2s1 [Compound 349] | > 1000 nM | 1000 to 10000 nM | 1000 to 10000 nM |  |

Second part, led by results:

| IC50 ([1]; GP2d, 1 h) | IC50 [2] | IC50 [3] | SMILES | IC50 ([1]; read-out: pERK-Gp2D-1hr) |
| --- | --- | --- | --- | --- |
| 100 to 1000 nM | 1000 to 10000 nM | 100 to 1000 nM | CN(c1nc(OC[C@@]23CCCN2C[C@H](F)C3)nc2c(Cl)c(-c3ccc(F)c4sc(N)nc34)c(C(F)(F)F)cc12)[C@@H]1CCNC1 [Compound 314] |  |
| 100 to 1000 nM | 1000 to 10000 nM | 100 to 1000 nM | CN(c1nc(OC[C@@]23CCCN2C[C@H](F)C3)nc2c(F)c(-c3ccc(F)c4sc(N)nc34)c(C(F)(F)F)cc12)C1CCNC1 (stereo in doubt) [Compound 322, 7-fluoro-4-(8-fluoro-2-(((2R,7aS)-2-fluorotetrahydro-1H-pyrrolizin-7a(5H)-yl)methoxy)-4-(methyl((R)-pyrrolidin-3-yl)amino)-6-(trifluoromethyl)quinazolin-7-yl)benzo[d]thiazol-2-amine] |  |
| 100 to 1000 nM | 1000 to 10000 nM | 1000 to 10000 nM | Nc1nc2c(-c3c(C(F)(F)F)cc4c(N5CC[C@H]6CNC[C@H]65)nc(OC[C@@]56CCCN5C[C@H](F)C6)nc4c3F)ccc(F)c2s1 [Compound 352] |  |
| 100 to 1000 nM | 100 to 1000 nM | 100 to 1000 nM | C[C@@H]1C[C@@H](N(C)c2nc(OC[C@@]34CCCN3C[C@H](F)C4)nc3c(F)c(-c4ccc(F)c5sc(N)nc45)c(C(F)(F)F)cc23)CN1 [Compound 283] |  |
| 100 to 1000 nM | 100 to 1000 nM | 100 to 1000 nM | CN(c1nc(OCC23CCCN2CCC3)nc2c(F)c(-c3ccc(F)c4sc(N)nc34)c(C(F)(F)F)cc12)C12CC(N)(C1)C2 [Compound 274] |  |
| 100 to 1000 nM | 100 to 1000 nM | 100 to 1000 nM | CN(c1nc(OC[C@@]23CCCN2C[C@H](F)C3)nc2c(F)c(-c3ccc(F)c4sc(N)c(C#N)c34)c(C#N)cc12)[C@@H]1CCNC1 [Compound 345, 7-(2-amino-3-cyano-7-fluorobenzo[b]thiophen-4-yl)-8-fluoro-2-(((2R,7aS)-2-fluorotetrahydro-1H-pyrrolizin-7a(5H)-yl)methoxy)-4-(methyl((R)-pyrrolidin-3-yl)amino)quinazoline-6-carbonitrile] |  |
| 100 to 1000 nM | 1000 to 10000 nM | 100 to 1000 nM | Nc1nc2c(-c3c(C(F)(F)F)cc4c(N5CCC[C@H]6NCC[C@H]65)nc(OCC56CCCN5CCC6)nc4c3F)ccc(F)c2s1 [Compound 332] |  |
| ≤ 100 nM | 100 to 1000 nM | ≤ 100 nM | CN(c1nc(OC[C@@]23CCCN2C[C@H](F)C3)nc2c(F)c(-c3ccc(F)c4sc(N)c(C#N)c34)c(C(F)(F)F)cc12)[C@@H]1CCN[C@@H]1CF [Compound 364] |  |
| ≤ 100 nM | 100 to 1000 nM | 100 to 1000 nM | Nc1nc2c(-c3c(C(F)(F)F)cc4c(N5CC6CC5CN6)nc(OC[C@@]56CCCN5C[C@H](F)C6)nc4c3F)ccc(F)c2s1 (stereo partly drawn) [Compound 226] |  |
| ≤ 100 nM | 10000 to 30000 nM | 100 to 1000 nM | C[C@H]1C[C@@H](N(C)c2nc(OC[C@@]34CCCN3C[C@H](F)C4)nc3c(F)c(-c4ccc(F)c5sc(N)nc45)c(C(F)(F)F)cc23)CN1 [Compound 311] |  |
| 100 to 1000 nM | 100 to 1000 nM | 100 to 1000 nM | CN(c1nc(OC[C@@]23CCCN2C[C@H](F)C3)nc2c(F)c(-c3ccc(F)c4sc(N)nc34)c(C(F)(F)F)cc12)[C@@H]1CNCC1(C)C [Compound 293] |  |
| ≤ 100 nM | 100 to 1000 nM | 100 to 1000 nM | CN(c1nc(OC[C@@]23CCCN2C[C@H](F)C3)nc2c(F)c(-c3ccc(F)c4sc(N)c(C#N)c34)c(Cl)cc12)[C@@H]1CCNC1 [Compound 379] |  |
| 100 to 1000 nM | 1000 to 10000 nM | 100 to 1000 nM | C[C@@H]1C[C@@H](N(C)c2nc(OC[C@@]34CCCN3C[C@H](F)C4)nc3cc(-c4ccc(F)c5sc(N)nc45)c(C(F)(F)F)cc23)CN1 [Compound 336] |  |
| ≤ 100 nM | 100 to 1000 nM | ≤ 100 nM | C[C@@H]1CN(c2nc(OC[C@@]34CCCN3C[C@H](F)C4)nc3c(F)c(-c4ccc(F)c5sc(N)c(C#N)c45)c(C(F)(F)F)cc23)[C@@H](C)CN1 [Compound 378] |  |
